Data taken from patent US20080039500A1, “Cerebral Infarction Suppressant” (priority 2004, published 2008).

Columns and labels:
neuronal death = conditions: cited from earlier work
cerebral infarction [1] = experiment: Example 1: concomitant use of histidine and H3-receptor blocker, size of infarction after 2 h middle cerebral artery occlusion (TTC staining); type: in vivo, rat
Excerpt: These rats were anesthetized with a gas mixture of 2% halothane, 49% oxygen and 49% laughing gas, and kept under spontaneous breathing. Subsequently, a median incision was made in the neck of the rat placed on its back, and the right common carotid artery was exposed. […] The tip of the nylon thread was placed 18 mm from the bifurcation. After suture of the incision of the skin, the rats were allowed to recover from anesthesia. During surgery, an electronic thermometer was inserted into the temporal muscle, and the body temperature was maintained at 37.0±0.1° C. with a lamp. […] Five minutes before reperfusion of blood flow, the rats were anesthetized again. […] Histidine was first dissolved in physiological saline adjusted to pH 4.0 with hydrochloric acid, and then the pH was resumed to 6.0 with sodium hydroxide. Further, 5 mg/kg of thioperamide was intraperitoneally injected to each thioperamide administration group. After recovery from anesthesia, the rats were allowed to access food and water freely. Twenty-four hours after recovery of blood flow, sodium pentobarbital was intraperitoneally administered to the rats for anesthesia. Subsequently, the brain was perfused with physiological saline, and the rat was decapitated. The brain was quickly dissected, and rinsed in physiological saline. The brain was sliced coronally between the optic chiasm and the caucal edge of the mammillary body at a thickness of 2 mm. […] As a result, triphenyltetrazolium chloride was reduced due to the action of dehydrogenase present in viable cells, and the tissue was stained in dark red. On the other hand, the dead tissue in the infarcted area was not stained. These brain slices were preserved in phosphate-buffered formalin overnight. Then, an investigator who was unaware of histidine administration measured the size of infarction using computer-aided planimetry.

[2] = tested on: pyramidal neurons in the hippocampal CA-1 region; conditions: administration prior to transient forebrain ischemia, rat; cited from earlier work
cerebral infarction [3] = experiment: Example 2: concomitant use of histidine and HMT inhibitor, size of infarction after middle cerebral artery occlusion
Protocol: Twenty-five male Wistar rats weighing about 300 g were divided into 4 groups consisting of histidine 1000 mg/kg administration group, histidine 200 mg/kg+metoprine 10 mg/kg administration group, histidine 500 mg/kg+metoprine 10 mg/kg administration group, and histidine 1000 mg/kg+metoprine 10 mg/kg administration group.
The root of the right middle cerebral artery of these rats was occluded and blood flow was recovered as shown in the Example 1. Then, 200 mg/kg, 500 mg/kg or 1000 mg/kg of histidine was intraperitoneally administered to the rats, and 10 mg/kg of metoprine was further administered to the metoprine administration groups, as shown in the Example 1.
The samples were prepared by treating each rat as shown in the Example 1 and the size of infarction was measured. The obtained size of cerebral infarction was subjected to analysis of variance and the Bonferroni test.

liver function = conditions: patients who received the agent; cited from earlier work
[4] = histidine 200 mg/kg i.p. alone, single dose after reperfusion, 24 h
[5] = histidine 500 mg/kg i.p. alone after reperfusion, 24 h
[6] = histidine 1000 mg/kg i.p. alone after reperfusion, 24 h
[7] = Example 2, histidine 1000 mg/kg i.p. alone after reperfusion, 24 h

## COc1ccc(CN(CCN(C)C)c2ccccn2)cc1 [mepyramine]
Neuronal death; co-administered with histidine, ranitidine used concomitantly with mepyramine
  alleviation of nerve cell death by histidine in presence of histamine receptor blocker: slightly suppressed

## N[C@@H](Cc1c[nH]cn1)C(=O)O [Histidine, histidine]
Cerebral infarction [1]; histidine 200 mg/kg i.p. alone, single dose after reperfusion (2 h MCA occlusion), 24 h after recovery of blood flow
  size of cerebral infarction, Striatum: 35.3 ± 21.6 mm^3
Cerebral infarction [1]; [4]
  size of cerebral infarction, Cerebral cortex: 106.3 ± 63.0 mm^3
  size of cerebral infarction, Total: 141.6 ± 83.1 mm^3
Cerebral infarction [1]; [5]
  size of cerebral infarction, Cerebral cortex: 86.0 ± 49.9 mm^3
  size of cerebral infarction, Striatum: 30.5 ± 23.3 mm^3
  size of cerebral infarction, Total: 116.5 ± 69.7 mm^3
Cerebral infarction [1]; [6]
  size of cerebral infarction, Cerebral cortex: 114.2 ± 33.9 mm^3
  size of cerebral infarction, Striatum: 47.8 ± 16.3 mm^3
  size of cerebral infarction, Total: 162.0 ± 45.8 mm^3
Cerebral infarction [1]; histidine alone in a single dose after ischemia (200, 500, 1000 mg/kg)
  suppressive effects on cerebral infarction: not found
[2]
  programmed death of neurons after transient ischemia: depressed
Neuronal death; histidine 4 times: shortly, 6, 24 and 48 hours after 15 minutes of transient ischemia, rats
  neuronal death 7 days after ischemia caused by apoptosis: depressed
Cerebral infarction [3]; 1000 mg/kg of histidine in a single dose after ischemia, without metoprine
  suppressive effects on cerebral infarction: not found
Cerebral infarction [3]; [7]
  size of cerebral infarction, Cerebral cortex: 87.8 ± 42.5 mm^3
  size of cerebral infarction, Striatum: 57.2 ± 20.2 mm^3
  size of cerebral infarction, Total: 145.0 ± 59.2 mm^3

## CC1=NN(c2ccccc2)C(=O)C1 [edaravone]
Liver function
  patients with abnormal values in laboratory tests on the liver function: 21.4%
